According to publication PMC6481325, “Novel N,N-dialkyl cyanocinnamic acids as monocarboxylate transporter 1 and 4 inhibitors” (Oncotarget, 2019):
“Also recorded” adds a separate entry of the source.

Experiments:
[1] = system: MCT1 expressing WiDr cells; assay: Seahorse XFe96 mitochondrial stress test (OCR), WiDr; format: cell-based; settings: 30 μM
Description: (§1) Extracellular acidification rates (ECAR) and oxygen consumption rates (OCR) were recorded in real-time for glycolysis stress test (GST) and mitochondrial stress test (MST), respectively, using Agilent Seahorse XFe96® analyzer.

[2] = system: MDA-MB-231 tumor xenograft; assay: Tumor growth inhibition, MDA-MB-231 xenograft model; format: in vivo; settings: SCID mice
Description: Figure 6 In vivo xenograft studies in WiDr and MDA-MB-231 tumor models (A) WiDr tumor xenograft study of compound 3 and compound 9. Mice (n = 8) were treated with 8 mg/kg of compound 3, intraperitoneally, two times a day. (B) Tumor growth inhibition study with compound 9 in MDA-MB-231 tumor xenograft model (n = 6). Mice were treated with compound 9 (70 mg/kg, ip, bid until day-4; qd from day-5), a combination of 9 and doxorubicin (0.5 mg/kg, ip, five days a week), and doxorubicin. (C) Tumor growth inhibition based on isolated tumor mass. ^*P < 0.05, ^**P < 0.01, ^***P < 0.001, ^****P < 0.0001. Schematic representation of (D) untreated tumor cells and (E) inhibition of MCT1 and MCT4 and decreased glycolysis and mitochondrial OxPhos in compound 9 treated tumor cells. Upward hollowed arrow indicates “increase” in function/amount and downward hollowed arrow indicates “decrease” in function/amount.
Group-1 was administered with compound 9, group-2 was given a combination of compound 9 and clinical breast cancer drug doxorubicin (AKSci catalog # E518), and group-3 was treated with doxorubicin alone. Group-4 was assigned as a control group and treated with vehicle (10% DMSO in saline). The treatment was continued up to 18 days and on day 20, the mice were euthanized and tumor masses isolated and weighed. […] Due to these reasons, higher dosages of compound 9 were required to produce significant anticancer efficacy in vivo. In all these studies, <20% of body weight loss was observed.
Tumor cells suspended in 1:1 matrigel-PBS were injected on right flank of female SCID mice (n = 6 mice/group, 10^7 MDA-MB-231 cells) or right flank of female athymic nude mice (n = 8 mice/group, 5 × 10^6 WiDr cells). Tumors were measured using calipers every 2–3 days and tumor volumes were calculated using the formula V = ab^2/2 where ‘a’ is the long diameter of the tumor and ‘b’ is the short diameter of the tumor. Tumor growth inhibition was determined using the formula % inhibition = [(C – T)/C] × 100 where C is average tumor weight of the control group and T is the average tumor weight of the test group.

[3] = system: WiDr cells; assay: SRB cell proliferation inhibition assay, WiDr; format: cell-based; settings: Homo sapiens, 72 hours, average ± sem
Description: (§2) MDA-MB-231 cells (ATCC, 2015) were grown in DMEM supplemented with 10% FBS and penicillin-streptomycin (50 U/ml, 50 μg/ml, Invitrogen). WiDr cells (ATCC, 2017) were cultured in MEM medium supplemented with 10% FBS (Atlanta Biologicals) and penicillin-streptomycin (50 U/ml, 50 μg/ml). For in vitro experiments, after seeding, cells were incubated at 37°C in 5% CO2 for 18–24 hours before the addition of test compounds.
(§3) Cells (5 × 10^4 cells/mL) were cultured in 48-well plates. Test compounds were dissolved in DMSO (final concentration of DMSO is <0.1%) and were added to culture wells at various concentrations in replicate and incubated for 72 hours. Growth medium was removed and the wells were washed with PBS and dried. SRB (0.5% in 1% acetic acid) was added to the wells and incubated for 30–45 minutes. The wells were washed 3 times with 1% acetic acid and dried. The cellular protein was dissolved in trizma base (10 mM, pH 10.2) and absorbance was recorded at 540 nm. Percent survival was calculated using the formula %Survival=Abstest compound/Abscontrol×100 .

[4] = system: MCT1 expressing WiDr cells; assay: Seahorse XFe96 glycolysis stress test (ECAR), WiDr; format: cell-based; settings: 30 μM
Description: In the GST, three parameters namely glycolysis, glycolytic capacity and glycolytic reserve were measured.
as §1

[5] = system: WiDr tumor xenograft; set-up: method as in ref 32, 33 = [32]; PMID 26005533; doi:10.1021/acsmedchemlett.5b00049; 32 Gurrapu S Jonnalagadda SK Alam MA Nelson GL Sneve MG Drewes LR Mereddy VR Monocarboxylate transporter 1 inhibitors as potential anticancer agents ACS Med Chem Lett 2015 6 558 61 10.1021/acsmedcheml || [33]; 33 Mereddy VR Drewes LR Alam MA Jonnalagadda SK Gurrapu S Therapeutic Compounds US 9296728B2 United States Patent and Trademark Office 2016 https://app.dimensions.ai/details/patent/US-9296728-B2; settings: mice, three weeks; cited from earlier work
[6] = system: MDA-MB-231 cells; assay: SRB cell proliferation inhibition assay, MDA-MB-231; format: cell-based; settings: 72 hours, average ± sem
Description: as §2, §3

[7] = set-up: method as in ref 32 = [32]; PMID 26005533; doi:10.1021/acsmedchemlett.5b00049; 32 Gurrapu S Jonnalagadda SK Alam MA Nelson GL Sneve MG Drewes LR Mereddy VR Monocarboxylate transporter 1 inhibitors as potential anticancer agents ACS Med Chem Lett 2015 6 558 61 10.1021/acsmedcheml; settings: in vivo; cited from earlier work
[8] = system: MCT4 expressing MDA-MB-231 cells; assay: Seahorse XFe96 mitochondrial stress test (OCR), MDA-MB-231; format: cell-based; settings: 30 μM
Description: as §1

- SRB IC50 [6]: did not show any activity
- IC50 ([6]; Homo sapiens): > 25 µM
Structure (SMILES): COc1cc(N(c2ccccc2)c2ccccc2)ccc1/C=C(\C#N)C(=O)O [Phenyl (9)]
- ATP production (MST, OCR) [1]: significantly decreased
- maximal respiration (MST, OCR) [1]: significantly decreased
- proton leak (MST, OCR) [1]: significantly increased proton leak compared to compound 3
- spare respiratory capacity (MST, OCR) [1]: significantly decreased
- tumor growth inhibition based on tumor volume ([2]; 9 70 mg/kg ip bid until day-4, qd from day-5, doxorubicin 0.5 mg/kg ip five days a week, treatment up to 18 days): 58%
- tumor growth inhibition based on isolated tumor weights ([2]; same regimens, tumors isolated on day 20): 56%
- IC50 [3]: 4.2 ± 0.4 µM
- glycolytic capacity (GST, ECAR) [4]: decreased; also recorded: significant decrease
- glycolytic reserve (GST, ECAR) [4]: completely arrested; also recorded: significant decrease
- tumor growth reduction [5]: 33%
- elimination from plasma [7]: most of the compound was eliminated in less than one hour
- time of peak plasma concentration [7]: 15 min
- ATP production (MST, OCR) [8]: significantly decreased
- maximal respiration (MST, OCR) [8]: significantly decreased
- proton leak (MST, OCR) [8]: significantly increased
- spare respiratory capacity (MST, OCR) [8]: significantly decreased
